We go through eleven molecules from ChEMBL document CHEMBL1275582, “Role of the Ser-287-Asn replacement in the hydrolysis spectrum extension of AmpC beta-lactamases in Escherichia coli” (2009).

≈ marks a conversion by molar mass, not a printed value. A value given as a limit tells only on which side of the number the result lay.

For assay [1], the system named is Escherichia coli. As to the kind of experiment: Antibacterial activity against Escherichia coli TOP10 by agar dilution method. It counts as functional. On the technique in general: In agar dilution the substance is mixed into plates at graded concentrations.
Assay [2] has as its system Escherichia coli. Kind of assay: Antibacterial activity against Escherichia coli TOP10 expressing AmpC-A S287N mutant protein by agar dilution method in presence of 2 mg/liter clavulanic acid. It counts as functional.
Assay [3] relates to Escherichia coli. Kind of assay: Antibacterial activity against Escherichia coli TOP10 expressing AmpC-A by agar dilution method in presence of 2 mg/liter clavulanic acid. It counts as functional.
Assay [4] deals with Escherichia coli. Kind of assay: Antibacterial activity against Escherichia coli TOP10 expressing AmpC-B2 by agar dilution method in presence of 2 mg/liter clavulanic acid. It counts as functional.
Assay [5] deals with Escherichia coli. Kind of assay: Antibacterial activity against Escherichia coli TOP10 expressing AmpC-A by agar dilution method. Format: functional.
The subject of assay [6] is Escherichia coli. Kind of assay: Antibacterial activity against Escherichia coli TOP10 by agar dilution method in presence of 2 mg/liter clavulanic acid. It counts as functional.
For assay [7], the system named is Escherichia coli. As to the kind of experiment: Antibacterial activity against Escherichia coli TOP10 expressing AmpC-B2 by agar dilution method. Format: functional.
The subject of assay [8] is Escherichia coli. Kind of assay: Antibacterial activity against Escherichia coli TOP10 expressing AmpC-B2 S287N mutant protein by agar dilution method in presence of 2 mg/liter clavulanic acid. Format: functional.
Assay [9] deals with Escherichia coli. Kind of assay: Antibacterial activity against Escherichia coli TOP10 expressing AmpC-B2 by agar dilution method in presence of 4 mg/liter Tazobactam. Format: functional.
Assay [10] concerns Escherichia coli. As to the kind of experiment: Antibacterial activity against Escherichia coli TOP10 expressing AmpC-A S287N mutant protein by agar dilution method in presence of 4 mg/liter Tazobactam. Format: functional.
Assay [11] has as its system Escherichia coli. As to the kind of experiment: Antibacterial activity against Escherichia coli TOP10 expressing AmpC-B2 S287N mutant protein by agar dilution method in presence of 4 mg/liter Tazobactam. Format: functional.
Assay [12] relates to Escherichia coli. Kind of assay: Antibacterial activity against Escherichia coli TOP10 by agar dilution method in presence of 4 mg/liter Tazobactam. Format: functional.
Assay [13] relates to Escherichia coli. As to the kind of experiment: Antibacterial activity against Escherichia coli TOP10 expressing AmpC-A S287N mutant protein by agar dilution method. It counts as functional.
The test system of assay [14] is Escherichia coli. As to the kind of experiment: Antibacterial activity against Escherichia coli TOP10 expressing AmpC-B2 S287N mutant protein by agar dilution method. Format: functional.
Assay [15] has as its system Escherichia coli. As to the kind of experiment: Antibacterial activity against Escherichia coli TOP10 expressing AmpC-A by agar dilution method in presence of 4 mg/liter Tazobactam. It counts as functional.
Assay [16] concerns Escherichia coli. Kind of assay: Activity of Escherichia coli TOP10 beta-lactamase AmpC-A S287N mutant.
In assay [17] the test system is Escherichia coli. Kind of assay: Activity of Escherichia coli TOP10 beta-lactamase AmpC-B2 S287N mutant.
Assay [18] deals with Escherichia coli. Kind of assay: Activity of Escherichia coli TOP10 beta-lactamase AmpC-B2.
Assay [19] relates to Escherichia coli. As to the kind of experiment: Activity of Escherichia coli TOP10 beta-lactamase AmpC-A.

In general, MIC refers to the least concentration at which growth counts as inhibited. On to `CC1(C)S[C@@H]2[C@H](NC(=O)[C@H](N)c3ccc(O)cc3)C(=O)N2[C@H]1C(=O)O` [AMOXICILLIN], for which the MIC is 2 µg/mL (≈ 5.47 µM) with Escherichia coli [1]; 512 µg/mL in the assay with Escherichia coli [2]; more than 512 µg/mL in the assay with Escherichia coli [3]; 256 µg/mL in the assay with Escherichia coli [4]; more than 512 µg/mL with Escherichia coli [5]; 2 µg/mL in the assay on Escherichia coli [6]. Further, the MIC with Escherichia coli [7] was more than 512 µg/mL; in the assay with Escherichia coli [8] it was 512 µg/mL.

As to `CCN1CCN(C(=O)N[C@@H](C(=O)N[C@@H]2C(=O)N3[C@@H]2SC(C)(C)[C@@H]3C(=O)O)c2ccccc2)C(=O)C1=O` [PIPERACILLIN], the MIC was 1 µg/mL (≈ 1.93 µM) in the assay on Escherichia coli [1]; 4 µg/mL with Escherichia coli [9]; 8 µg/mL with Escherichia coli [10]; 4 µg/mL in the assay on Escherichia coli [11]; 4 µg/mL (≈ 7.73 µM) with Escherichia coli [5]; 1 µg/mL with Escherichia coli [12]. For the same molecule, the MIC against Escherichia coli [13] came to 8 µg/mL (≈ 15.5 µM); in the assay with Escherichia coli [7], 2 µg/mL (≈ 3.86 µM); against Escherichia coli [14] it was 4 µg/mL (≈ 7.73 µM); with Escherichia coli [15], 4 µg/mL.

Regarding `CC1(C)S[C@@H]2[C@H](NC(=O)[C@H](C(=O)O)c3ccsc3)C(=O)N2[C@H]1C(=O)O` [TICARCILLIN], the MIC in the assay with Escherichia coli [1] is 1 µg/mL (≈ 2.6 µM); in the assay on Escherichia coli [2], 256 µg/mL; with Escherichia coli [3], 2 µg/mL; in the assay on Escherichia coli [4], 2 µg/mL; with Escherichia coli [5] it was 2 µg/mL (≈ 5.2 µM); against Escherichia coli [13], 256 µg/mL (≈ 666 µM). For the same molecule, the MIC with Escherichia coli [6] came to 1 µg/mL; in the assay on Escherichia coli [7] it was 2 µg/mL (≈ 5.2 µM); in the assay on Escherichia coli [14], 64 µg/mL (≈ 166 µM); in the assay on Escherichia coli [8], 64 µg/mL.

As usually defined, the kcat is the number of substrate molecules converted per active site and unit of time at saturation. Turning to `CO/N=C(\C(=O)N[C@@H]1C(=O)N2C(C(=O)[O-])=C(C[N+]3(C)CCCC3)CS[C@H]12)c1csc(N)n1` [CEFEPIME], the kcat in the assay with Escherichia coli [16] worked out at 1.35 s⁻¹; in the assay on Escherichia coli [17], 0.25 s⁻¹. Further, the MIC against Escherichia coli [5] came out at 0.06 µg/mL (≈ 0.125 µM); against Escherichia coli [13], 16 µg/mL (≈ 33.3 µM); in the assay on Escherichia coli [7], 0.06 µg/mL (≈ 0.125 µM).

As usually defined, the Km is the substrate concentration at which the rate is half of its maximum. As to `CO/N=C(\C(=O)N[C@@H]1C(=O)N2C(C(=O)O)=C(COC(C)=O)CS[C@H]12)c1csc(N)n1` [CEFOTAXIME], the Km with Escherichia coli [18] is 45 µM; in the assay on Escherichia coli [16] it was 100 µM; in the assay with Escherichia coli [19], 25 µM; in the assay on Escherichia coli [17] it was 1000 µM. Also, the kcat with Escherichia coli [18] worked out at 0.1 s⁻¹; in the assay with Escherichia coli [16] it was 0.08 s⁻¹; in the assay with Escherichia coli [19], 0.2 s⁻¹; with Escherichia coli [17], 0.045 s⁻¹. Moreover, the MIC in the assay with Escherichia coli [1] came to 0.06 µg/mL (≈ 0.132 µM); against Escherichia coli [5] it was 1 µg/mL (≈ 2.2 µM); in the assay with Escherichia coli [13] it was 16 µg/mL (≈ 35.1 µM); against Escherichia coli [7], 0.5 µg/mL (≈ 1.1 µM); against Escherichia coli [14], 1 µg/mL (≈ 2.2 µM).

With `O=C(Cc1cccs1)N[C@@H]1C(=O)N2C(C(=O)[O-])=C(C[n+]3ccccc3)CS[C@H]12`, the kcat with Escherichia coli [18] came out at 240 s⁻¹; with Escherichia coli [16] it was 50 s⁻¹; with Escherichia coli [19], 230 s⁻¹; in the assay on Escherichia coli [17], 112 s⁻¹.

For `C[C@@H](O)[C@H]1C(=O)N2C(C(=O)O)=C(SCCNC=N)C[C@H]12` [IMIPENEM ANHYDROUS], the Km in the assay with Escherichia coli [18] is 32 µM; with Escherichia coli [16], 200 µM; with Escherichia coli [17], 2000 µM. For the same molecule, the kcat was 0.09 s⁻¹ in the assay with Escherichia coli [18], 0.06 s⁻¹ with Escherichia coli [16] and 0.06 s⁻¹ in the assay on Escherichia coli [17]. The MIC against Escherichia coli [5], in the assay on Escherichia coli [13], against Escherichia coli [7] and against Escherichia coli [14] was 0.06 µg/mL (≈ 0.2 µM) throughout.

Take `CC(C)(O/N=C(\C(=O)N[C@@H]1C(=O)N2C(C(=O)[O-])=C(C[n+]3ccccc3)CS[C@H]12)c1csc(N)n1)C(=O)O` [CEFTAZIDIME]: the kcat in the assay with Escherichia coli [18] is 0.3 s⁻¹; in the assay with Escherichia coli [16], 0.2 s⁻¹; in the assay on Escherichia coli [19] it was 0.5 s⁻¹; with Escherichia coli [17], 0.01 s⁻¹. The MIC against Escherichia coli [1] amounted to 0.06 µg/mL (≈ 0.11 µM); in the assay on Escherichia coli [5] it was 2 µg/mL (≈ 3.66 µM); against Escherichia coli [13], 512 µg/mL (≈ 937 µM); against Escherichia coli [7], 1 µg/mL (≈ 1.83 µM); with Escherichia coli [14], 4 µg/mL (≈ 7.32 µM). Further, the Km in the assay on Escherichia coli [16] was 400 µM; with Escherichia coli [19] it was 70 µM; in the assay with Escherichia coli [17] it was 1000 µM.

`C[C@H]1[C@H](NC(=O)/C(=N\OC(C)(C)C(=O)O)c2csc(N)n2)C(=O)N1S(=O)(=O)O` [AZTREONAM]: the MIC in the assay with Escherichia coli [5] was determined as 0.125 µg/mL (≈ 0.287 µM); against Escherichia coli [13], 16 µg/mL (≈ 36.7 µM); in the assay on Escherichia coli [7], 0.06 µg/mL (≈ 0.138 µM).

Consider `CC(=O)OCC1=C(C(=O)O)N2C(=O)[C@@H](NC(=O)Cc3cccs3)[C@H]2SC1` [CEPHALOTHIN], for which the results for the Km in the assay on Escherichia coli [18], in the assay with Escherichia coli [16] and in the assay on Escherichia coli [19] were 85 µM, 5500 µM and 30 µM, respectively. In addition, the kcat is 540 s⁻¹ with Escherichia coli [18], 65 s⁻¹ in the assay on Escherichia coli [16], 500 s⁻¹ with Escherichia coli [19] and 10 s⁻¹ with Escherichia coli [17]. The values for the MIC against Escherichia coli [1], with Escherichia coli [5] and with Escherichia coli [7] were 2 µg/mL (≈ 5.04 µM), more than 512 µg/mL and more than 512 µg/mL, respectively.

Turning to `CO[C@@]1(NC(=O)Cc2cccs2)C(=O)N2C(C(=O)O)=C(COC(N)=O)CS[C@@H]21` [CEFOXITIN], the Km in the assay with Escherichia coli [18] was determined as 1.5 µM; with Escherichia coli [16], 700 µM; with Escherichia coli [19], 1 µM; in the assay on Escherichia coli [17], 800 µM. Further, the kcat with Escherichia coli [18] is 0.4 s⁻¹; in the assay with Escherichia coli [16], 0.1 s⁻¹; in the assay with Escherichia coli [19], 0.3 s⁻¹; in the assay on Escherichia coli [17], 0.08 s⁻¹. Further, the MIC is 2 µg/mL (≈ 4.68 µM) against Escherichia coli [1]; 128 µg/mL (≈ 299 µM) with Escherichia coli [5]; 32 µg/mL (≈ 74.9 µM) against Escherichia coli [13]; 128 µg/mL (≈ 299 µM) with Escherichia coli [7]; 128 µg/mL (≈ 299 µM) with Escherichia coli [14].
